Data reported in ChEMBL document CHEMBL6078643, “Palladium-Mediated Bioorthogonal System for Prodrug Activation of N-Benzylbenzamide-Containing Tubulin Polymerization Inhibitors for the Treatment of Solid Tumors” (J Med Chem, 2024).
Calls of active or inactive are those of the source. No cut-off for these calls is given here.

What was measured:
[1] = tested on: K562; experiment: Induction of cell cycle arrest in human K562 cells assessed as accumulation of cells at G2 phase at 80 nM incubated for 72 hrs in presence of palladium resins by PI staining based flow cytometric analysis ( Rvb = 8.5 %); format: functional
[2] = Toxicity in Balb/c mouse xenografted with human HepG2 cells assessed as effect on heart at 20 mg/kg, iv administered daily in presence of palladium resins for 14 days by H and E staining based analysis; format: organism-based; conditions: in vivo, 336 h, time 14 day
[3] = Toxicity in Balb/c mouse xenografted with human HepG2 cells assessed as effect on kidney at 20 mg/kg, iv administered daily in presence of palladium resins for 14 days by H and E staining based analysis; format: organism-based; conditions: in vivo, 336 h, time 14 day
[4] = target: Bcr/Abl fusion protein (Homo sapiens) (UniProt P00519+P11274); experiment: Inhibition of Bcr-Abl in human K562 cells at 80 nM incubated for 24 hrs in presence of palladium resins by Western blotting analysis; format: cell-based
Bcr/Abl fusion protein (Homo sapiens), sequence (P00519 whole entry, looked up, the tested form may be a part): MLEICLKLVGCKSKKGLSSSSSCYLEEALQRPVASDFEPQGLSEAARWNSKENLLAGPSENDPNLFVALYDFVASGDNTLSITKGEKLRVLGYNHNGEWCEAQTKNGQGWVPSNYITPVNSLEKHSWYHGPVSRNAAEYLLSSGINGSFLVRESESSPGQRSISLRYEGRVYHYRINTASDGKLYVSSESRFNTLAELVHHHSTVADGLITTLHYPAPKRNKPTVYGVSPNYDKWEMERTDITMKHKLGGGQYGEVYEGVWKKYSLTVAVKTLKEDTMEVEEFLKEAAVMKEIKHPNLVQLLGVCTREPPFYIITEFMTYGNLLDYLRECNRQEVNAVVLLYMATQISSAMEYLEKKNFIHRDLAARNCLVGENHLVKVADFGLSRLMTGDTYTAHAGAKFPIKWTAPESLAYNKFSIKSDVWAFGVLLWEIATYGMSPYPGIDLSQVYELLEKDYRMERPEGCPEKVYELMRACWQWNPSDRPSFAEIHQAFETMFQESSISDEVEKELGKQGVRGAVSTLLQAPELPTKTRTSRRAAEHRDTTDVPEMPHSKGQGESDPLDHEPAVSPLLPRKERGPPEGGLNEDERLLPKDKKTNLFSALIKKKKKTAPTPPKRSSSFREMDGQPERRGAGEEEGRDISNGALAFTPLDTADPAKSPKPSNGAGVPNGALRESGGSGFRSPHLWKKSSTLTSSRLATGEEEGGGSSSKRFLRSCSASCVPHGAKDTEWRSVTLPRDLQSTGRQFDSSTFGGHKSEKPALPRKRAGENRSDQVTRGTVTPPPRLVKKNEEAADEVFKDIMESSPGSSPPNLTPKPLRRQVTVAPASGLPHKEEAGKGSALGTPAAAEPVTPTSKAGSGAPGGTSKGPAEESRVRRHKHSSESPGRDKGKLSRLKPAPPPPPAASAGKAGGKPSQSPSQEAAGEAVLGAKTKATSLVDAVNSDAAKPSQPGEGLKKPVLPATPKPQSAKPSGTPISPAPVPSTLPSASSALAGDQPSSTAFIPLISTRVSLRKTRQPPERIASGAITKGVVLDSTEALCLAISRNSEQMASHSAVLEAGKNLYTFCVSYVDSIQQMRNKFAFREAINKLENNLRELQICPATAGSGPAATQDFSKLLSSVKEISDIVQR
Bcr/Abl fusion protein (Homo sapiens), sequence (P11274 whole entry, looked up, the tested form may be a part): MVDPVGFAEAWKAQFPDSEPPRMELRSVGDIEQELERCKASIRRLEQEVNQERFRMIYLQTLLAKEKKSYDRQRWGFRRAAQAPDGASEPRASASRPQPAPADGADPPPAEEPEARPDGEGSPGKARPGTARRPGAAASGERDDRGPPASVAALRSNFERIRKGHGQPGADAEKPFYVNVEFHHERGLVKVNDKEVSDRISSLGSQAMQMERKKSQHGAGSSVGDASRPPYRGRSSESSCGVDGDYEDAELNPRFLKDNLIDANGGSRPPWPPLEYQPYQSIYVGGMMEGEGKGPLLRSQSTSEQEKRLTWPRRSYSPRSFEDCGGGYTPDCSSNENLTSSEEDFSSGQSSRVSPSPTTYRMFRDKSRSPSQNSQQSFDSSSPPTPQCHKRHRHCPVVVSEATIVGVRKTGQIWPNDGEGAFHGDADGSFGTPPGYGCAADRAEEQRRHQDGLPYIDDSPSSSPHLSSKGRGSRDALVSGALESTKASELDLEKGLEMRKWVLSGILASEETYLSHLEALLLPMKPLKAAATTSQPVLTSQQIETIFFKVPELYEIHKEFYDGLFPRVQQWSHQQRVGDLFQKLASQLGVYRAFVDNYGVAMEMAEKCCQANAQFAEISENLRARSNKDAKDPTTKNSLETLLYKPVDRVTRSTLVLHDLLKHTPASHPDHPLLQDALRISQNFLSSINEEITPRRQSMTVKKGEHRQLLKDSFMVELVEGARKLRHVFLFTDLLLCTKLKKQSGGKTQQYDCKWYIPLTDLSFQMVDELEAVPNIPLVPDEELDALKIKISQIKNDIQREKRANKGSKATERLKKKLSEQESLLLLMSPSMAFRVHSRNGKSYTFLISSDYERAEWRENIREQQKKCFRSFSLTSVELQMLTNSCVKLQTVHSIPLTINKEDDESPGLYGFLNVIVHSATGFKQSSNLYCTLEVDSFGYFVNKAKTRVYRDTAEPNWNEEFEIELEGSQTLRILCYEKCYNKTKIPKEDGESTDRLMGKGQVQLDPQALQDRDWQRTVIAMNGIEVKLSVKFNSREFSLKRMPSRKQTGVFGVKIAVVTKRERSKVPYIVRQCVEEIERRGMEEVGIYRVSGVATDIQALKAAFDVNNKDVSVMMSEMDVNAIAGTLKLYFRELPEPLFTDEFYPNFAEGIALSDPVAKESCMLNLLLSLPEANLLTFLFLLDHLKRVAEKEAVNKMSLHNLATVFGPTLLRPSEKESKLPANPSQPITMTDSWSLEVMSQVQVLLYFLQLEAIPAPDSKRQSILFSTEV

[5] = tested on: K562; experiment: Induction of apoptosis in human K562 cells assessed as early apoptotic cells at 80 nM incubated for 72 hrs by Annexin V-APC staining based flow cytometric analysis (reference value: 2.78%); format: functional
[6] = tested on: HepG2; experiment: Antiproliferative activity against human HepG2 cells at 100 nM incubated for 72 hrs in presence of palladium resins by CCK-8 assay; format: functional, cell-based
[7] = tested on: K562; experiment: Antiproliferative activity against human K562 cells at 100 nM incubated for 72 hrs in presence of palladium resins by CCK-8 assay; format: functional, cell-based
[8] = target: T1, Tubulin (Homo sapiens) (UniProt P68371+Q9H4B7+P0DPH7+P68366+Q13509+Q71U36+P04350+Q3ZCM7+P07437+P68363+Q9BQE3+Q6PEY2+Q13885+Q9BVA1+Q9BUF5); experiment: Inhibition of tubulin polymerization in human K562 cells assessed as decrease in polymerized alpha tubulin level at 80 nM incubated for 24 hrs in presence of palladium resins by Western blotting analysis; format: cell-based
[9] = tested on: K562; experiment: Cytotoxicity against human K562 cells assessed as parent drug 5-fluoro-N-(3-hydroxy-4-methoxybenzyl)-2-morpholinobenzamide mediated decrease in cell viability at 100 nM in presence of palladium resins incubated for 72 hrs by CCK-8 assay; format: functional, cell-based
[10] = target: T1, Tubulin (Homo sapiens); experiment: In vivo inhibition of tubulin polymerization in human HepG2 cells xenografted in Balb/c mouse assessed as decrease in beta tubulin expression at 20 mg/kg, iv administered daily for 14 days in presence of palladium resins incubated for 24 hrs by Western blot analysis; format: functional, organism-based; conditions: time 14.0 day
[11] = tested on: K562; experiment: Induction of apoptosis in human K562 cells assessed as viable cells at 80 nM incubated for 72 hrs in presence of palladium resins by Annexin V-APC staining based flow cytometric analysis (reference value: 94.21%); format: functional; conditions: read-out: Activity
[12] = tested on: K562; experiment: Induction of cell cycle arrest in human K562 cells assessed as accumulation of cells at S phase at 80 nM incubated for 72 hrs by PI staining based flow cytometric analysis ( Rvb = 14.04 %); format: functional
[13] = target: T1, Tubulin (Homo sapiens); experiment: Inhibition of tubulin polymerization in human K562 cells assessed as decrease in beta tubulin expression at 80 nM incubated for 24 hrs in presence of palladium resins by Western blotting analysis; format: cell-based
[14] = tested on: K562; experiment: Induction of cell cycle arrest in human K562 cells assessed as accumulation of cells at S phase at 80 nM incubated for 72 hrs in presence of palladium resins by PI staining based flow cytometric analysis ( Rvb = 14.04 %); format: functional
[15] = tested on: K562; experiment: Induction of apoptosis in human K562 cells assessed as early apoptotic cells at 80 nM incubated for 72 hrs in presence of palladium resins by Annexin V-APC staining based flow cytometric analysis (reference value: 2.78%); format: functional
[16] = tested on: K562; experiment: Induction of apoptosis in human K562 cells assessed as late apoptotic cells at 80 nM incubated for 72 hrs by Annexin V-APC staining based flow cytometric analysis (reference value: 1.36%); format: functional
[17] = tested on: HepG2; experiment: Antiproliferative activity against human HepG2 cells assessed as reduction in cell viability incubated for 72 hrs by CCK-8 assay; format: functional, cell-based; conditions: HepG2, 72 h
[18] = tested on: K562; experiment: Antiproliferative activity against human K562 cells assessed as reduction in cell viability incubated for 72 hrs by CCK-8 assay; format: functional, cell-based; conditions: K562, 72 h
[19] = tested on: K562; experiment: Induction of apoptosis in human K562 cells assessed as chromatin condensation at 80 nM incubated for 72 hrs in presence of palladium resins by Hoechst 33342 staining based fluorescent microscopic analysis; format: functional, cell-based
[20] = tested on: HepG2; experiment: Antitumor activity against human HepG2 cells xenografted in Balb/c mouse assessed as cell necrosis at 20 mg/kg, iv administered daily for 14 days in presence of palladium resins by H and E staining based analysis; format: functional, organism-based; conditions: time 14.0 day
[21] = target: T1, Tubulin (Homo sapiens); experiment: Inhibition of tubulin polymerization in human HepG2 cells assessed as decrease in polymerized alpha tubulin level at 80 nM incubated for 24 hrs in presence of palladium resins by Western blotting analysis; format: cell-based
[22] = target: T1, Tubulin (Homo sapiens); experiment: Inhibition of tubulin polymerization in human K562 cells assessed as decrease in alpha tubulin expression at 80 nM incubated for 24 hrs in presence of palladium resins by Western blotting analysis; format: cell-based
[23] = Prodrug release in PBS buffer assessed as half release time of 5-fluoro-N-(3-hydroxy-4-methoxybenzyl)-2-morpholinobenzamide in presence of palladium resins at 75 uM by HPLC analysis; format: ADME
[24] = tested on: HepG2; experiment: Antitumor activity against human HepG2 cells xenografted in Balb/c mouse assessed as cell necrosis at 20 mg/kg, iv administered daily for 14 days in presence of palladium resins by TUNEL staining based analysis; format: functional, organism-based; conditions: time 14.0 day
[25] = target: T1, Tubulin (Homo sapiens); experiment: Inhibition of tubulin polymerization in human HepG2 cells assessed as decrease in alpha tubulin expression at 80 nM incubated for 24 hrs in presence of palladium resins by Western blotting analysis; format: cell-based
[26] = tested on: K562; experiment: Induction of cell cycle arrest in human K562 cells assessed as accumulation of cells at G2/M phase at 80 nM incubated for 72 hrs in presence of palladium resins by PI staining based flow cytometric analysis ( Rvb = 8.5 %); format: functional
[27] = Toxicity in Balb/c mouse xenografted with human HepG2 cells assessed as effect on liver at 20 mg/kg, iv administered daily in presence of palladium resins for 14 days by H and E staining based analysis; format: organism-based; conditions: in vivo, 336 h, time 14 day
[28] = tested on: K562; experiment: Induction of apoptosis in human K562 cells assessed as late apoptotic cells at 80 nM incubated for 72 hrs in presence of palladium resins by Annexin V-APC staining based flow cytometric analysis (reference value: 1.36%); format: functional
[29] = tested on: H22; experiment: Select factor, ratio of test compound IC50 to 5-fluoro-N-(3-hydroxy-4-methoxybenzyl)-2-morpholinobenzamide IC50 for antiproliferative activity against mouse H22 cells assessed as reduction in cell viability incubated for 72 hrs by CCK-8 assay; format: functional
[30] = tested on: K562; experiment: Induction of ROS generation in human K562 cells assessed as increase in DCF-positive cells at 80 nM incubated for 72 hrs in presence of palladium resins by DCF-DA staining based flow cytometric analysis (reference value: 7.67%); format: functional
[31] = tested on: HepG2; experiment: Antitumor activity against human HepG2 cells xenografted in Balb/c mouse assessed as tumor growth inhibition at 20 mg/kg, iv administered daily in presence of palladium resins for 14 days relative to control; format: functional; conditions: HepG2, 336 h, time 14 day

inhibition [4]: Active
inhibition [8]: Active
Activity [10]: Active
inhibition [13]: Active
IC50 [17]: 1310 nM
IC50 [18]: 1100 nM
inhibition [21]: Active
inhibition [22]: Active
t1/2 [23]: 7.2 h
inhibition [25]: Active
Compound: C#CCOc1cc(CNC(=O)c2cc(F)ccc2N2CCOCC2)ccc1OC
Activity [1]: 12.3%
Activity [2]: Non-toxic
Activity [3]: Non-toxic
Activity [5]: 4.26%
Activity [6]: Active
Activity [7]: Active
Activity [9]: Active
viability at 0.08 µM [11]: 45.4%
Activity [12]: 23.64%
Activity [14]: 29.11%
Activity [15]: 23.78%
Activity [16]: 1.96%
Activity [19]: Active
Activity [20]: Active
Activity [24]: Active
Activity [26]: 12.3%
Activity [27]: Non-toxic
Activity [28]: 27.82%
Ratio IC50 [29]: 39.6
Activity [30]: 54.85%
inhibition in vivo at 20 mg/kg [31]: 63.2%
